The values below come from patent US20250018046A1, “COMPOUNDS FOR TARGETING DEGRADATION OF IRAK4 PROTEINS” (BIOGEN MA INC, priority 2021, published 2025).

Each structure is given as a SMILES string.

In the assay the target is T1, IRAK4 (Homo sapiens, UniProt Q9NWZ3).
T1 construct: knocking-in a HiBiT fusion tag into the C-terminal of the IRAK4 gene in 293T cells; host or cells: 293T cells, knock-in of HiBiT at the endogenous IRAK4 locus
T1 sequence (Q9NWZ3 1-460): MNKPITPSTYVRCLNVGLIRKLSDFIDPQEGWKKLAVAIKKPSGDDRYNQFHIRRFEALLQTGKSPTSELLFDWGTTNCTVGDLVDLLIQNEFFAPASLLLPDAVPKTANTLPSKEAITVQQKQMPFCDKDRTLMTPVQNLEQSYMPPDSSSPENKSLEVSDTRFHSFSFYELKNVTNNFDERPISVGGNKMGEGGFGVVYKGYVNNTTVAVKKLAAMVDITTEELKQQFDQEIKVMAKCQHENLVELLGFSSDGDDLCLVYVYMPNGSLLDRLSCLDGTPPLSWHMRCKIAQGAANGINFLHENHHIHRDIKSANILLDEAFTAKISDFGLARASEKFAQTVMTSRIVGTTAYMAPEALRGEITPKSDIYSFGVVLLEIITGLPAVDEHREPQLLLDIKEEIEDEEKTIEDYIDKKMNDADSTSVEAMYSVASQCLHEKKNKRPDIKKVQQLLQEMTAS
As to the kind of experiment: IRAK4 degradation assay using the HiBiT Method. It counts as cell-based. The conditions noted are these: 293T cells expressing HiBiT-tagged IRAK4; 6-hour incubation; Nano-Glo HiBiT Lytic Assay luminescence. How it is done:
Selected compounds were tested in an IRAK4 degradation assay using the HiBiT Method.
Phenol red-free Dulbecco's modified Eagle medium (DMEM) and fetal bovine serum (FBS) were purchased from Gibco (Grand Island, NY, USA). The Nano-Glo© HiBiT Lytic Assay System was purchased from Promega (Madison, WI, USA). Cell culture flasks and 384-well microplates were acquired from VWR (Radnor, PA, USA). The 293T cell line was engineered by knocking-in a HiBiT fusion tag into the C-terminal of the IRAK4 gene in 293T cells (Synthego, Redwood City, CA, USA).
IRAK4 degradation was measured via the quantification of luminescent signals using the Nano-Glo© HiBiT Lytic Assay kit. Test compounds were added to 384-well plates in duplicate using an 11-point half-log dilution series, with the highest dose set at 10 mM. 293T cells expressing HiBiT-tagged IRAK4 were then added into 384-well plates at a cell density of 10,000 cells per well. The plates were kept at 37° C. with 5% CO2 for 6 hours. Cells that were treated only with DMSO served as the negative control; wells that contained only assay media served as the background control. After the 6-hour incubation, Nano-Glo® HiBiT Lytic Assay reagents were added to the cells. Luminescence was acquired using an EnVision® Multilabel Reader (PerkinElmer, Santa Clara, CA, USA).
A general note: HiBiT is a short tag that completes a luciferase, so light tracks the accessible tagged protein.

With `CC(C)Oc1cn2cc(C3CCN(CC(=O)N4CCC(c5ccc(NC6CCC(=O)NC6=O)cc5)CC4)CC3)nc2cc1NC(=O)c1cccc(C(F)(F)F)n1` (single isomer, unassigned) [Example 14, N-[2-[1-[2-[4-[4-[[2,6-dioxo-3-piperidyl]amino]phenyl]-1-piperidyl]-2-oxo-ethyl]-4-piperidyl]-6-isopropoxy-imidazo[1,2-a]pyridin-7-yl]-6-(trifluoromethyl)pyridine-2-carboxamide], the half-maximal degradation concentration (DC50) (in general, the concentration giving 50% degradation) lay within 10 to 100 nM.

`CC(C)Oc1cn2cc(C3CCN(CC(=O)N4CCC(c5ccc(NC6CCC(=O)NC6=O)cc5)CC4)CC3)nc2cc1NC(=O)c1cccc(C(F)(F)F)n1` (single isomer, unassigned) [Example 15, N-[2-[1-[2-[4-[4-[[2,6-dioxo-3-piperidyl]amino]phenyl]-1-piperidyl]-2-oxo-ethyl]-4-piperidyl]-6-isopropoxy-imidazo[1,2-a]pyridin-7-yl]-6-(trifluoromethyl)pyridine-2-carboxamide]: the DC50 is 10 to 100 nM.

In turn, `CC(C)Oc1cc2nc(C3CCN(C(=O)CN4CCC(c5ccc(OC6CCC(=O)NC6=O)cc5)CC4)CC3)cn2cc1NC(=O)c1cccc(C(F)(F)F)n1` (centres unmarked) [Example 1, N-[2-[1-[2-[4-[4-[(2,6-dioxo-3-piperidyl)oxy]phenyl]-1-piperidyl]acetyl]-4-piperidyl]-7-isopropoxy-imidazo[1,2-a]pyridin-6-yl]-6-(trifluoromethyl) pyridine-2-carboxamide] showed a DC50 of 100 to 500 nM.

In turn, `CC(C)Oc1cc2nc(C3CCN(C(=O)CN4CCC(c5cccc(NC6CCC(=O)NC6=O)c5F)CC4)CC3)cn2cc1NC(=O)c1cccc(C(F)(F)F)n1` (centres unmarked) [Example 2, N-[2-[1-[2-[4-[3-[(2,6-dioxo-3-piperidyl)amino]-2-fluoro-phenyl]-1-piperidyl]acetyl]-4-piperidyl]-7-isopropoxy-imidazo[1,2-a]pyridin-6-yl]-6-(trifluoromethyl)pyridine-2-carboxamide] yielded a DC50 of 10 to 100 nM.

The molecule `CC(C)Oc1cc2nc(C3CCN(C(=O)CN4CCC(c5cccc(NC6CCC(=O)NC6=O)c5)CC4)CC3)cn2cc1NC(=O)c1cccc(C(F)(F)F)n1` (centres unmarked) [Example 3, N-[2-[1-[2-[4-[3-[(2,6-dioxo-3-piperidyl)amino]phenyl]-1-piperidyl]acetyl]-4-piperidyl]-7-isopropoxy-imidazo[1,2-a]pyridin-6-yl]-6-(trifluoromethyl)pyridine-2-carboxamide] came in with a DC50 of 100 to 500 nM.

`CC(C)Oc1cc2nc(C3CCN(C(=O)CN4CCC(c5ccc(C6CCC(=O)NC6=O)cc5)CC4)CC3)cn2cc1NC(=O)c1cccc(C(F)(F)F)n1` (centres unmarked) [Example 4, N-[2-[1-[2-[4-[4-(2,6-dioxo-3-piperidyl)phenyl]-1-piperidyl]acetyl]-4-piperidyl]-7-isopropoxy-imidazo[1,2-a]pyridin-6-yl]-6-(trifluoromethyl)pyridine-2-carboxamide] yielded a 50% degradation concentration (DC50) of 100 to 500 nM.

In turn, `CC(C)Oc1cc2nc(C3CCN(C(=O)CN4CCN(c5ccc(C6CCC(=O)NC6=O)cc5)CC4)CC3)cn2cc1NC(=O)c1cccc(C(F)(F)F)n1` (centres unmarked) [Example 5, N-[2-[1-[2-[4-[4-(2,6-dioxo-3-piperidyl)phenyl]piperazin-1-yl]acetyl]-4-piperidyl]-7-isopropoxy-imidazo[1,2-a]pyridin-6-yl]-6-(trifluoromethyl)pyridine-2-carboxamide] came in with a half-maximal degradation concentration (DC50) of 100 to 500 nM.

Turning to `CC(C)Oc1cc2nc(C3CCN(C(=O)CN4CCN(c5ccc(OC6CCC(=O)NC6=O)cc5)CC4)CC3)cn2cc1NC(=O)c1cccc(C(F)(F)F)n1` (centres unmarked) [Example 6, N-[2-[1-[2-[4-[4-[(2,6-dioxo-3-piperidyl)oxy]phenyl]piperazin-1-yl]acetyl]-4-piperidyl]-7-isopropoxy-imidazo[1,2-a]pyridin-6-yl]-6-(trifluoromethyl)pyridine-2-carboxamide], the DC50 was 100 to 500 nM.

On to `CC(C)Oc1cc2nc(C3CCN(C(=O)CN4CCC(c5ccc(NC6CCC(=O)NC6=O)cc5F)CC4)CC3)cn2cc1NC(=O)c1cccc(C(F)(F)F)n1` (centres unmarked) [Example 7, N-[2-[1-[2-[4-[4-[(2,6-dioxo-3-piperidyl)amino]-2-fluoro-phenyl]-1-piperidyl]acetyl]-4-piperidyl]-7-isopropoxy-imidazo[1,2-a]pyridin-6-yl]-6-(trifluoromethyl)pyridine-2-carboxamide], for which the DC50 was in the range of 100 to 500 nM.

In turn, `CC(C)Oc1cc2nc(C3CCN(C(=O)CCN4CCC(c5ccc(NC6CCC(=O)NC6=O)cc5F)CC4)CC3)cn2cc1NC(=O)c1cccc(C(F)(F)F)n1` (centres unmarked) [Example 8, N-[2-[1-[3-[4-[4-[(2,6-dioxo-3-piperidyl)amino]-2-fluoro-phenyl]-1-piperidyl]propanoyl]-4-piperidyl]-7-isopropoxy-imidazo[1,2-a]pyridin-6-yl]-6-(trifluoromethyl)pyridine-2-carboxamide] gave a DC50 of 10 to 100 nM.

`CC(C)Oc1cc2nc(C3CCN(C(=O)CN4CCC(c5ccc(NC6CCC(=O)NC6=O)cc5)CC4)CC3)cn2cc1NC(=O)c1cccc(C(F)(F)F)n1` (centres unmarked) [Example 9, N-[2-[1-[2-[4-[4-[(2,6-dioxo-3-piperidyl)amino]phenyl]-1-piperidyl]acetyl]-4-piperidyl]-7-isopropoxy-imidazo[1,2-a]pyridin-6-yl]-6-(trifluoromethyl)pyridine-2-carboxamide]: the half-maximal degradation concentration (DC50) fell in the range of 10 to 100 nM.

With `CC(C)Oc1cc2nc(C3CCN(C(=O)CN4CCN(c5ccc(NC6CCC(=O)NC6=O)cc5)CC4)CC3)cn2cc1NC(=O)c1cccc(C(F)(F)F)n1` (centres unmarked) [Example 10, N-[2-[1-[2-[4-[4-[(2,6-dioxo-3-piperidyl)amino]phenyl]piperazin-1-yl]acetyl]-4-piperidyl]-7-isopropoxy-imidazo[1,2-a]pyridin-6-yl]-6-(trifluoromethyl)pyridine-2-carboxamide], the DC50 lay in the range of 100 to 500 nM.

With `CC(C)Oc1cc2nc(C3CCN(CC(=O)N4CCC(c5ccc(NC6CCC(=O)NC6=O)cn5)CC4)CC3)cn2cc1NC(=O)c1cccc(C(F)(F)F)n1` (centres unmarked) [Example 11, N-[2-[1-[2-[4-[5-[(2,6-dioxo-3-piperidyl)amino]-2-pyridyl]-1-piperidyl]-2-oxo-ethyl]-4-piperidyl]-7-isopropoxy-imidazo[1,2-a]pyridin-6-yl]-6-(trifluoromethyl)pyridine-2-carboxamide], the DC50 fell in the range of 100 to 500 nM.

Take `CC(C)Oc1cc2nc(C3CCN(CC(=O)N4CCC(c5ccc(C6(F)CCC(=O)NC6=O)cc5)CC4)CC3)cn2cc1NC(=O)c1cccc(C(F)(F)F)n1` (centres unmarked) [Example 12, N-[2-[1-[2-[4-[4-(3-fluoro-2,6-dioxo-3-piperidyl)phenyl]-1-piperidyl]-2-oxo-ethyl]-4-piperidyl]-7-isopropoxy-imidazo[1,2-a]pyridin-6-yl]-6-(trifluoromethyl)pyridine-2-carboxamide]: the DC50 was in the range of 100 to 500 nM.

In turn, `CC(C)Oc1cc2nc(C3CCN(CC(=O)N4CCC(c5cccc(NC6CCC(=O)NC6=O)c5F)CC4)CC3)cn2cc1NC(=O)c1cccc(C(F)(F)F)n1` (centres unmarked) [Example 13, N-[2-[1-[2-[4-[3-[(2,6-dioxo-3-piperidyl)amino]-2-fluoro-phenyl]-1-piperidyl]-2-oxo-ethyl]-4-piperidyl]-7-isopropoxy-imidazo[1,2-a]pyridin-6-yl]-6-(trifluoromethyl)pyridine-2-carboxamide] registered a 50% degradation concentration (DC50) of 100 to 500 nM.

Regarding `CC(C)Oc1cc2nc(C3CCN(CC(=O)N4CCN(CCCc5ccc(NC6CCC(=O)NC6=O)cc5)CC4)CC3)cn2cc1NC(=O)c1cccc(C(F)(F)F)n1` (centres unmarked) [Example 16, N-[2-[1-[2-[4-[3-[4-[(2,6-dioxo-3-piperidyl)amino]phenyl]propyl]piperazin-1-yl]-2-oxo-ethyl]-4-piperidyl]-7-isopropoxy-imidazo[1,2-a]pyridin-6-yl]-6-(trifluoromethyl) pyridine-2-carboxamide], the 50% degradation concentration (DC50) was 100 to 500 nM.

The molecule `CC(C)Oc1cc2nc(C3CCN(CC(=O)N4CCC(c5cccc(NC6CCC(=O)NC6=O)c5)CC4)CC3)cn2cc1NC(=O)c1cccc(C(F)(F)F)n1` (centres unmarked) [Example 17, N-[2-[1-[2-[4-[3-[(2,6-dioxo-3-piperidyl)amino]phenyl]-1-piperidyl]-2-oxo-ethyl]-4-piperidyl]-7-isopropoxy-imidazo[1,2-a]pyridin-6-yl]-6-(trifluoromethyl)pyridine-2-carboxamide] gave a half-maximal degradation concentration (DC50) of 10 to 100 nM.
